Results: paper PMC5975898, “Cationic porphyrins are tunable gatekeepers of the 20S proteasome” (Chemical Science, 2015)
Like-named read-outs stand apart in the source and are kept apart here.

Columns and labels:
[1] = molecular target: T1, human 20S proteasome ChT-L activity; assay: 20S proteasome ChT-L activity inhibition assay (Suc-LLVY-AMC); assay type: biochemical
T1 construct: purchased Boston Biochem
Experimental: (§1) Purified human 20S proteasome and the fluorogenic substrates Suc-LLVY-AMC, Z-Leu-Leu-Glu-AMC, and Ac-Arg-Leu-Arg-AMC used to test the ChT-L, PGPH-L, and T-L activity, respectively, were purchased from Boston Biochem (Cambridge, MA, USA).
(§2) Proteasome activity assays were performed in vitro by mixing 20S proteasome (2 nM) with 100 μM of the proper fluorogenic peptide in the assay buffer (i.e., 25 mM HEPES, 0.5 mM EDTA, pH 7.6) in a 384 multiwell black plate. […] A minimum of three replicates were performed for each data point. Data are expressed as normalized percentages of residual activity considering the slope of the control (fluorogenic peptide/proteasome in the absence of inhibitors) as 100% of proteasome activity. Dose–response plots of the residual proteasome activity in the presence of increasing concentration of inhibitor provides a quantitative estimate of its potency. […] The estimation of the IC50 is based on a nonlinear fit with the equation:2 [drawing 2]
(§3) The IC50 values and their standard errors were deduced from the fitting. […] The resulting catalytic parameter are Km, corresponding to the apparent affinity constant (or Michaelis–Menten constant) of substrate for the free enzyme (to form the ES complex), and kcat, corresponding to the velocity of the rate-limiting step during the enzymatic activity. […] The mechanism of inhibition of the 20S proteasome ChT-L activity by the inhibitors was analyzed by modified double-reciprocal plot, as from the following equations for the different inhibitory mechanisms:4a [drawing 4]

[2] = molecular target: T2, human 20S proteasome T-L activity; assay: 20S proteasome T-L activity inhibition assay (Ac-Arg-Leu-Arg-AMC); assay type: biochemical
T2 construct: purchased Boston Biochem
Experimental: as §1, §2, §3

[3] = molecular target: T3, human 20S proteasome PGPH-L activity; assay: 20S proteasome PGPH-L activity inhibition assay (Z-Leu-Leu-Glu-AMC); assay type: biochemical
T3 construct: purchased Boston Biochem
Experimental: as §1, §2, §3

[4] = test system: T1, human 20S proteasome ChT-L activity; assay: Steady-state enzyme kinetics of ChT-L inhibition (Lineweaver-Burk plot); assay type: biochemical
From the text: Analysis of enzyme kinetics may provide valuable insights in the understanding of inhibition mechanisms. To this aim, we have addressed the inhibition mechanism of the title compound H2T4 by determining the ChT-L activity of the CP at different concentrations of substrate and inhibitor. Since H2T4 inhibits all the three proteolytic functions of the CP with a similar potency, one can assume that the inhibition mechanism is similar for all enzymatic activities.
Fig. 6 Double reciprocal Lineweaver–Burk plot of substrate enzymatic 20S processing in the absence of inhibitor (○) and in the presence of 0.5 μM (×), 1 μM (+), 3 μM (*), 10 μM (⊗) and 20 μM inhibitor (⊕) for various concentrations of the substrate Suc-LLVY-AMC (from 6 to 100 μM).
The IC50 values and their standard errors were deduced from the fitting. Data relative to CP activities at different substrate/inhibitor concentrations have been analyzed by a double reciprocal Lineweaver–Burk plot, according to the following equation:3 [drawing 3] where [E0] is the enzyme concentration, ν is the observed velocity (expressed as moles of substrate cleaved per time interval unit) and [S] is the substrate concentration. […] The mechanism of inhibition of the 20S proteasome ChT-L activity by the inhibitors was analyzed by modified double-reciprocal plot, as from the following equations for the different inhibitory mechanisms:4a [drawing 4] […]

[5] = test system: T1, human 20S proteasome ChT-L activity; assay: Pre-steady-state kinetics of ChT-L inhibition (time course of fluorescent product, Runge-Kutta simulation); assay type: biochemical; conditions: 2 nM 20S, 100 μM Suc-LLVY-AMC; constrained to KI = k–I/k+I
Experimental: The kinetic parameters of H2T4 binding to the CP have also been determined as a function of time (as described in Experimental). Fig. 7 reports the time evolution of the fluorescent product obtained by mixing at t = 0 both the substrate (100 μM final concentration) and H2T4 at different concentrations, as reported in the figure legend; the fluorescent signal was transformed into molar concentrations of fluorescent product through a calibration curve resulting from the complete processing of known concentration of substrate. […]
The interaction of H2T4 with 20S proteasome has been also investigated from the pre-steady-state kinetic standpoint. Briefly, these assays were performed without incubation time, by direct addition of different concentrations of H2T4 in samples where the Ch-L activity was already being monitored. The extent and the rate of inhibition were determined by following the time-dependent fluorescent signal of the cleaved substrate for 25 additional minutes. Data have been analyzed according to a second-order Runge–Kutta simulation procedure based on a simple competitive inhibition mechanism, such as in Scheme 1.
The time evolution of each species reported in Scheme 1 was calculated at discrete time intervals dt. […]

20S proteasome = test system: T4, 20S proteasome; assay: Stopped-flow UV spectroscopy of H2T4 binding to 20S proteasome; design: species or system human; conditions: 421 nm, 37 °C
T4 construct: purchased Boston Biochem
From the text: In order to find a closer correlation between experimental observations and molecular modeling we have carried out a kinetic investigation of the interaction between H2T4 and 20S proteasome by stopped-flow. […] Data have been analyzed according to the following equation1 [drawing 1] where ΔODobs is the observed optical density change at a given time, r is the total number of exponentials during the reaction time course, ΔODi is the optical density change corresponding to the exponential i, ki is the rate constant associated to the exponential i, t is the time.
Fig. 11 Optical density changes at 421 nm for the mixing at 37 °C of 1 nM 20S proteasome with different concentrations of H2T4, namely 1 μM (curve a), 2 μM (curve b) and 5 μM (curve c). Continuous lines correspond to the non-linear least-squares fitting of data with two exponentials according to eqn (1), employing parameters reported in Table 1.
However, it is important to outline that kinetics reported in Fig. 11 are characterized by a multiphasic pattern with different patterns of concentration dependence of the rate constants. […] Therefore, on the basis of molecular modeling studies, these kinetic data can be accounted for by assuming that there is a first faster interaction with the N-terminal tails of the α subunits, characterized by k1, likely corresponding to the first encountering of the porphyrin with the α-subunits plane in a perpendicular geometry (Fig. 10A). […] The values ≈0 for the dissociation rate constants (Table 1) simply means that the rate is very slow and the interaction is very strong.

[6] = read-out: IC50 ChT-L (Figure S1), figure inset, semi-log plot of residual CP activity
[7] = read-out: IC50 best-fit value, ChT-L activity (Table S1), nonlinear fit of dose-response plot
[8] = read-out: IC50 T-L (Figure S1), figure inset, semi-log plot of residual CP activity
[9] = read-out: IC50 best-fit value, T-L activity (Table S1), nonlinear fit of dose-response plot
[10] = read-out: IC50 PGPH-L (Figure S1), figure inset, semi-log plot of residual CP activity
[11] = read-out: IC50 best-fit value, PGPH-L activity (Table S1), nonlinear fit of dose-response plot

Row | SMILES | IC50 [1, 6] | IC50 [1, 7] | IC50 [2, 8] | IC50 [2, 9] | IC50 [3, 10] | IC50 [3, 11] | inhibition mechanism ([4]; Lineweaver-Burk plot) | Ki ([4]; read-out: inhibitor affinity constant KI, Suc-LLVY-AMC 6 to 100 μM, fit with eqn (4a)) | k+I [5] | k–I [5] | off k1 (20S proteasome; 1 nM 20S, 1-5 μM H2T4) | off k2 (20S proteasome; 1 nM 20S, 1-5 μM H2T4) | on k1 (20S proteasome; 1 nM 20S, 1-5 μM H2T4) | on k2 (20S proteasome; 1 nM 20S, 1-5 μM H2T4) | k3 (20S proteasome; rate independent of porphyrin concentration)
1 | C[n+]1cccc(-c2c3nc(c(-c4ccc[n+](C)c4)c4ccc([nH]4)c(-c4ccc[n+](C)c4)c4nc(c(-c5ccc[n+](C)c5)c5ccc2[nH]5)C=C4)C=C3)c1 [meta-H2T4, meso-tetra(3-N-metil-pyridyl) porphyrin] | 930 nM | 931 nM | 1160 nM | 1160 nM | 210 nM | 211 nM | – | – | – | – | – | – | – | – | –
2 | C[n+]1ccc(-c2c3nc(c(-c4cc[n+](C)cc4)c4ccc([nH]4)c(-c4cc[n+](C)cc4)c4nc(c(-c5cc[n+](C)cc5)c5ccc2[nH]5)C=C4)C=C3)cc1 [H2T4, meso-tetrakis(4-N-methylpyridyl)-porphyrin] | 470 nM | 469 nM | 460 nM | 466 nM | 300 nM | 301 nM | competitive mechanism | 360 nM | 1.3 × 10^4 M^–1 s^–1 | 4.7 × 10^–3 s^–1 | ∼0 s^–1 | ∼0 s^–1 | 5.65 (±0.74) × 10^4 M^–1 s^–1 | 1.28 (±0.31) × 10^4 M^–1 s^–1 | 3.23 (±0.81) × 10^–3 s^–1
